Laboratory results as given in article PMC8344021, “Discovery of Small Molecule Bak Activator for Lung Cancer Therapy” (Theranostics, 2021).

Target: T1, mouse Bak protein (Mus musculus, UniProt O08734)
T1 construct: His tag; made in house; host or cells: Escherichia coli BL21 DE3
Assay: Isothermal titration calorimetry (ITC), mouse protein
Assay type: binding
Details: mouse wild type Bak
Method: The binding affinity of BKA-073 with Bak protein was examined by isothermal titration calorimetry (ITC) assay as described, [28]. ITC assay was carried out in the auto-iTC200 instrument (MicroCal, GE) at 25 °C. Purified recombinant human or mouse Bak protein was loaded into a 96 Deepwell PP plate. BKA-073 compound was then titrated stepwise into the protein for a total of 16 injections. Reference power and initial delay were set as 5 µCal/sec and 60s, respectively. A string speed of 750 rpm was used for the ITC measurements. The binding constant (Kd) value was determined by fitting the titration curve to a one-site binding mode, using the Origin software provided by the manufacturer.
Figure S3. […] The binding constant (KD) value was determined by fitting of the titration curve to a 1- […]
(1 x 10^5 cells) was transferred to a 5 ml culture tube, followed by the addition of 5 μl of FITC Annexin V and 5 μl propidium iodide (PI). […] Samples were analyzed by flow cytometry (BD FACSCantoTMII, BD Biosciences, San Jose, CA). ∆% cell death was calculated with the formula: (% cell death treated - % cell death non-treated) as described […]
Fluorescence polarization (FP) assay
Fluorescence polarization assay was carried out as described previously. […] The FP values (in millipolarization units) were measured using a fluorescence microplate reader at 485/530 nm (Gemini XPS, Molecular Devices). […]

T1 sequence (O08734 whole entry): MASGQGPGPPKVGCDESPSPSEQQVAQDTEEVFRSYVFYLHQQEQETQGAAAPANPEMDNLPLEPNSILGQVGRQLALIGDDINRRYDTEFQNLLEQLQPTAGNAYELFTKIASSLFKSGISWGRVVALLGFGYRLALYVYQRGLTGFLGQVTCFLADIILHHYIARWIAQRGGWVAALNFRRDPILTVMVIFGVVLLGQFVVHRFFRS

## COc1ccc2nc3ccccc3c(NCCNCC(C)O)c2c1 (stereo not shown) [BKA-073]
  Kd: 93.4 ± 7.91 nM
